Results published in publication PMC12040169 (PLOS Biology, 2025).
Where “and” joins values, the source holds several entries; their conditions need not be identical. Identical values can stand only once.

Legend:
[1] = tested on: HeLa; conditions: bulk resorufin, single well, 28.5 h, 10 µM, Bulk resorufin fluorescence
[2] = in vitro; conditions: human, hela cells, % viability

SMILES | % viability [1] | viability at 28.5 h, 10 µM [2] [%]
O=C(O)c1ccc(S(=O)(=O)Nc2ccc(O)c(-c3c(O)ccc4ccccc34)c2)cc1 [CBK267667] | 94.7% | 108
O=C(O)C1CCN(C2CC(=O)N(CCc3ccccc3)C2=O)CC1 (centres unmarked) [CBK269100] | 97.3% | 97.1
Cc1nn(CC(C)C(=O)O)c(C)c1Br (centres unmarked) [CBK269756] | 86.7% | 92.4
Cc1ccc(CN2CCNC(=O)C2CC(=O)O)o1 (centres unmarked) [CBK269966] | 91.7% | 91.8
Cc1c2c(=O)n(-c3ccccc3)[nH]c2cc(=O)n1CCc1ccccc1 [CBK269995] | 92.7% and 109% | 101
O=C(O)CC1C(=O)NCCN1Cc1cccc(Oc2ccccc2)c1 (centres unmarked) [CBK270023] | 103% | 91.4
CCC(Sc1nc(C)c(Cc2ccccc2)c(=O)[nH]1)C(=O)O (centres unmarked) [CBK270058] | 91.7% | 91.2
Cc1nnc2c(N3CCNCC3)nc3ccccc3n12 [CBK270224] | 75.4% | 89
O=C1CCCc2c1nc(-c1ccccc1Cl)n2O [CBK271948] | 82.2% | 89.5
CCCC(=O)N1CCC[C@@H](Cn2nc(-c3cccs3)ccc2=O)C1 [CBK282245] | 98% | 88.5
c1cnc2c(c1)cc([C@@H]1CCCO1)n2CCN1CCCCC1 [CBK282273] | 109% | 101
CCN(CC)C(=O)Cn1c([C@@H]2CCCO2)cc2cccnc21 [CBK282283] | 90.4% | 105
C=CCNC(=O)[C@H]1C=CCN1S(=O)(=O)c1ccc(F)cc1 [CBK282320] | 89.7% | 83.5
O=C(NC1CCCCC1)[C@H]1C=CCN1C(=O)c1ccc(F)cc1 [CBK282324] | 86.4% | 93.9
CC(C)[C@H](Cn1nc(C2CC2)ccc1=O)NC(=O)Cc1cccs1 [CBK282368] | 88.6% | 79.7
CC[C@@H](Cn1ncc2ccccc2c1=O)NC(=O)C1CC1 [CBK282385] | 91.3% | 88.3
O=C(CN1C(=O)[C@H]2CCCN2C(=O)c2ccccc21)N1CCCCC1 [CBK282435] | 80.4% | 90.6
C=CCNC(=O)Cn1c([C@@H]2CCCO2)cc2cccnc21 [CBK282873] | 110% | 98.2
C[C@H](Cn1c(C(F)(F)F)cc2cccnc21)NC(=O)c1ccco1 [CBK282933] | 94.6% | 91.5
CCC(=O)N1CCC[C@H](Cn2nc(-c3cccs3)ccc2=O)C1 [CBK283046] | 100% | 95.3
C=CCNC(=O)[C@@H]1C=CCN1C(=O)c1ccccc1F [CBK283052] | 98.9% | 105

SMILES | % viability [1] | viability at 28.5 h, 10 µM [2] [%]
CCn1cc(CN2C[C@@H]3CCCN3C[C@@H]2CCSC)cn1 [CBK283181] | 106% | 86.9
O=C(NC1CCCCC1)[C@H]1C=CCN1C(=O)c1ccccc1F [CBK283334] | 98% | 85.6
O=C(C1CCC1)N1CCC[C@H]1Cn1nc(-c2cccs2)ccc1=O [CBK284251] | 78.8% | 80.9
O=C(NC[C@H]1CCCN(C(=O)c2cccnc2)C1)c1cccs1 [CBK284264] | 90.3% | 81.6
CS(=O)(=O)N1CC=C[C@H]1C(=O)NCc1ccc(F)cc1 [CBK284270] | 87.2% | 97.6
CC(C)(C)OC(=O)N1CCC[C@H]1C(=O)c1nccs1 [CBK284282] | 95.5% | 108
CC(C)(C)OC(=O)N1CCC[C@@H]1C(=O)c1cccs1 [CBK284289] | 90.7% | 100
COc1ccc(NC(=O)[C@@H]2C=CCN2C(=O)c2ccco2)cc1 [CBK284292] | 77.2% | 88.5
CC[C@H](Cn1ncc2ccccc2c1=O)NC(=O)c1cccs1 [CBK284301] | 90.5% | 96.7
CC[C@H](Cn1ncc2ccccc2c1=O)NC(=O)Cc1ccsc1 [CBK284306] | 88.7% | 98.4
CC(C)[C@@H](Cn1nc(C2CC2)ccc1=O)NC(=O)C1CC1 [CBK284309] | 85.9% | 86.1
C[C@@H](Cn1nnc2ccccc21)NC(=O)C1CC1 [CBK284312] | 81.5% | 88.5
C=CCNC(=O)[C@@H]1C=CCN1C(=O)c1ccc(OC)cc1 [CBK284317] | 76.8% | 95.4
O=C(NCCc1ccccc1)[C@@H]1C=CCN1C(=O)c1cccs1 [CBK284320] | 92.9% | 95.2
C[C@@H](Cn1c(=O)oc2ccccc21)NC(=O)Cc1c[nH]c2ccccc12 [CBK284534] | 88.7% | 85.7
C[C@@H](Cn1c(=O)oc2ccccc21)NC(=O)Cc1ccsc1 [CBK284535] | 84.7% | 96.9
C[C@H](Cn1nc2c(cc1=O)CCCCC2)NC(=O)c1ccco1 [CBK284544] | 88.3% | 84.9
C[C@H](Cn1nc2c(cc1=O)CCCCC2)NC(=O)c1ccccc1F [CBK284547] | 91.5% | 89.5
C[C@@H]1CN2CCCC2CN1Cc1cccc2cccnc12 (some centres unmarked) [CBK284551] | 87.8% | 82.4
C[C@@H]1CN2C[C@H](O)CC2CN1Cc1ccc2c3ccccc3n(C)c2c1 (some centres unmarked) [CBK284554] | 102% | 91.5
C[C@H](Cn1nc2c(cc1=O)CCCCC2)NC(=O)c1ccc(F)cc1 [CBK284557] | 93.4% | 98.4

SMILES | % viability [1] | viability at 28.5 h, 10 µM [2] [%]
C[C@H](Cn1nc2c(cc1=O)CCCCC2)NC(=O)c1cccc(F)c1 [CBK284558] | 90% | 85.8
C[C@H]1CN2C[C@H](O)CC2CN1Cc1cccc(Oc2ccccc2)c1 (some centres unmarked) [CBK284566] | 96.2% | 93.6
Cn1cc(C(=O)N2C3CCC(C3)[C@@H]2COc2ccc(F)cc2)cn1 (some centres unmarked) [CBK284605] | 112% | 93.7
O[C@@H]1C[C@H]2CN(Cc3ccsc3)[C@@H](Cc3ccccc3)CN2C1 [CBK285376] | 95.8% | 91.9
COC(=O)c1ccc(CN2CC3CCCN3C[C@@H]2C)cc1 (some centres unmarked) [CBK285403] | 103% | 111
C[C@H]1CN2C[C@H](O)CC2CN1Cc1ccc(Cl)c(Cl)c1 (some centres unmarked) [CBK285404] | 94.3% | 111
C[C@@H]1CN2CCCC2CN1Cc1ccc(N(C)C)cc1 (some centres unmarked) [CBK285406] | 102% | 101
Cc1ccc(CN2CC3CCCN3C[C@H]2C)o1 (some centres unmarked) [CBK285407] | 104% | 87.1
C[C@@H]1CN2CCCC2CN1Cc1ccc2ccccc2n1 (some centres unmarked) [CBK285408] | 104% | 101
COc1ccccc1CN1CC2CCCN2C[C@H]1C (some centres unmarked) [CBK285409] | 106% | 90.6
C[C@@H]1CN2CCCC2CN1Cc1ccc(Br)o1 (some centres unmarked) [CBK285410] | 101% | 99.7
COc1ccc(CN2CC3CCCN3C[C@H]2C)cc1 (some centres unmarked) [CBK285412] | 103% | 111
C[C@H]1CN2CCCC2CN1Cc1cccc(F)c1 (some centres unmarked) [CBK285425] | 104% | 97.7
CCCn1ncc(CN2C[C@@H]3CCCN3C[C@@H]2CCSC)c1C [CBK285426] | 107% | 104
CCCCn1cc(CN2CC3CCCN3C[C@H]2C)c(C)n1 (some centres unmarked) [CBK285433] | 98.7% | 92.9
C[C@H]1CN2CCCC2CN1Cc1ccc(CN(C)C)cc1 (some centres unmarked) [CBK285438] | 101% | 88.9
C=Cn1ncc(CN2C[C@@H]3CCCN3C[C@H]2CCSC)c1C [CBK285440] | 101% | 99.4
C[C@@H]1CN2CCCC2CN1CC1CC=CCC1 (some centres unmarked) [CBK285441] | 99.9% | 99.1
COc1cccc(CN2CC3CCCN3C[C@H]2C)c1 (some centres unmarked) [CBK285442] | 105% | 113
